In series [1] the target is T1, human NOX4 (Homo sapiens, UniProt Q9NPH5).
T1 construct: made in house; host or cells: transgenic Drosophila (Da-GAL4 driven UAS-hNOX4, dDuox RNAi background); membranes from homogenized flies
T1 sequence (Q9NPH5 1-578): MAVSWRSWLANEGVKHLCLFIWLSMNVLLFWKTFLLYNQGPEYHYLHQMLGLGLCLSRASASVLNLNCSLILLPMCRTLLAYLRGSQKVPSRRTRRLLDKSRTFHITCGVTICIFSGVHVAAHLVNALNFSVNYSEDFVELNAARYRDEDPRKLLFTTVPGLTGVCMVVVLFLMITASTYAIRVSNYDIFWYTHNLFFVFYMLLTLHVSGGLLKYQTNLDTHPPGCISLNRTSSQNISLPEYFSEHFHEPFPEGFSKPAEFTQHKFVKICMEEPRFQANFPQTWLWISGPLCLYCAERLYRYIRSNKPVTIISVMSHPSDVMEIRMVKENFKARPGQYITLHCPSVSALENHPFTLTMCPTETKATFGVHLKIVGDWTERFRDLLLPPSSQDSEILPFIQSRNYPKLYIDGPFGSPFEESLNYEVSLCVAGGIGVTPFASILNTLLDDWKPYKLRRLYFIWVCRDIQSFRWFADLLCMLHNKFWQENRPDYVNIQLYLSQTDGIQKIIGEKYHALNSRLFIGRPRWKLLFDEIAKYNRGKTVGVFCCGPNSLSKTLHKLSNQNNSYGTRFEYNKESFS
Description: Lucigenin chemiluminescence assay, drosophila membranes expressing hNOX4. The series is classed as biochemical. The following applies: average of three repeats. The procedure: (§1) Human NOX isozymes were provided from transgenic flies expressing human NOX isozymes from the daughterless (Da)-GAL4 promoter. The genotype of each fly line is shown below. • human NOX2:UAS-hNOX2/UAS-dDuox-RNAi; Da-GAL4/+ • human NOX4:UAS-hNOX4/UAS-dDuox-RNAi; Da-GAL4/+
(§2) Transgenic flies were homogenized in PBS containing protease inhibitors (aprotinin, leupeptin) to obtain drosophila membranes of each NOX isozyme. The membranes were incubated with the compounds (100 μM, 10 μM, 1 μM, 0.1 μM, 0.01 μM, 0.001 μM, and 0 μM) for 10 minutes in a shaker. Then, to the membranes, a mixture of 500 μM NADPH (R-nicotinamide adenine dinucleotide 2′-phosphate reduced tetrasodium salt hydrate; Sigma-Aldrich) and 400 μM lucigenin (N,N′-dimethyl-9,9-biacridinium dinitrate; Sigma-Aldrich) in 1× HEPES (4-(2-hydroxyethyl)-1-piperazineethanesulfonic acid) buffer was added. Lucigenin chemiluminescence was detected at 1-minute intervals for 10 minutes using a multimode microplate reader (SpectraMax iD3, Molecular Devices). IC50 values were calculated with Graph-Pad Prism 5 (GraphPad Software).
(§3) The lucigenin chemiluminescence assay was performed with drosophila membranes expressing hNOX1, hNOX2, and hNOX4. The assay was repeated three times and the IC50 values were averaged.

Series [2] deals with T2, human NOX2 (Homo sapiens, UniProt P04839).
T2 construct: made in house; host or cells: transgenic Drosophila (Da-GAL4 driven UAS-hNOX2, dDuox RNAi background); membranes from homogenized flies
T2 sequence (P04839 2-570 limits assumed): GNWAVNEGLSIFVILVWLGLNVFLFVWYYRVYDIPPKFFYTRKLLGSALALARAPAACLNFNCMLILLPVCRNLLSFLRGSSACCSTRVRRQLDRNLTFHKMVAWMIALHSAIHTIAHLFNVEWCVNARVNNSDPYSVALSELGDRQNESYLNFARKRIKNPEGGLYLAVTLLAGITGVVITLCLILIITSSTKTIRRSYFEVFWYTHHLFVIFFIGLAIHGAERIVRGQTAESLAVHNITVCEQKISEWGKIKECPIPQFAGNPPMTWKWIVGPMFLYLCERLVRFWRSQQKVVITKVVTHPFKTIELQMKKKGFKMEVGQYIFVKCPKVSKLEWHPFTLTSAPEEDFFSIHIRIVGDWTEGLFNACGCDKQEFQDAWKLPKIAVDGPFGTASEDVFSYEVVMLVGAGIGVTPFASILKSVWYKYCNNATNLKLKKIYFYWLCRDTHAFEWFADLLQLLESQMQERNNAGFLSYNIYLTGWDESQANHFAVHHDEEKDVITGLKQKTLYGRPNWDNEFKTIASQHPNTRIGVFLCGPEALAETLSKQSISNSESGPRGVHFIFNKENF
Nature of the series: Lucigenin chemiluminescence assay, drosophila membranes expressing hNOX2. The series is classed as biochemical. The following applies: average of three repeats. The method, then: as §1, §2, §3

Series [3] is described as follows: PAMPA-BBB assay. The series is classed as in vitro ADME. The procedure:
The parallel artificial membrane permeability assay (PAMPA) was performed to determine the brain barrier blood (BBB) permeability. […] For the Blank measurement, the donor buffer was dispensed into a high sensitivity UV plate at 150 μl per well and the UV values were measured (Blank sample). For the initial value measurement, the mixture in the deep well plate was dispensed 150 μl per well into the UV plate and the UV values were measured (initial sample). Next, 200 μl of the test compound mixture was dispensed onto the donor plate of the PAMPA sandwich, and the acceptor plate of the PAMPA sandwich was inverted and the membrane was coated with 5 μl of BBB-lipid solution. Then, 200 μl of acceptor sink buffer was added to each well of the acceptor plate, and the acceptor plate and donor plate were combined and incubated at 25° C. for 4 hours. […] Finally, the permeability (Pe(10^−6 cm/sec)) was analyzed using the PAMPA explore program. The experiment was performed in three replicates. The permeability of the material was analyzed by UV measurement and LC-MS/MS, the specific conditions of which are described below.

A short description of series [4]: Metabolic stability in human liver microsomes. The series is classed as in vitro ADME. The following applies: human liver microsomes 0.5 mg/ml, 1 μM, 30 minutes, 37° C., NADPH. The method, then: The stability of a drug may be predicted by using liver microsomes to determine the extent to which the drug is metabolized in the liver. […] Thus, a metabolic stability verification experiment was performed on the oxadiazole derivatives according to The present disclosure.
Specifically, sample treatment human liver microsomes (0.5 mg/ml), 0.1 M phosphate buffer (pH 7.4), and test compound at a concentration of 1 μM were added, and the mixture was pre-incubated at 37° C. for 5 minutes, followed by addition of NADPH Regeneration system solution and incubation at 37° C. for 30 minutes. An acetonitrile solution containing an internal standard (chlorpropamide) was then added to terminate the reaction, followed by centrifugation for 5 minutes (14,000 rpm, 4° C.). Then, the supernatant was injected into the LC-MS/MS system to analyze the substrate drug to evaluate the metabolic stability of the two compounds.
The HPLC column was an Acquity UPLC BEH Amide column (2.1×100 mm, 1.7 μm particle size; Waters, Ireland). The mobile phases were distilled water containing 0.1% formic acid (A) and acetonitrile containing 0.1% formic acid (B). Data analysis was performed using Analyst software (version 1.6.3).
A general note: Liver microsomes are vesicles of endoplasmic reticulum, rich in cytochrome P450 enzymes.

Series [5] concerns U87. Description: Mouse model xenografted with brain tumor glioblastoma U87. The following applies: Example 2 study: Example 2 50 mg/kg 5 times per week, TMZ 5 mg/kg 2 times per week, from 20 days after xenografting; vehicle 42 days. It counts as in vivo, mice. The method, then: To confirm the therapeutic effect on brain tumor glioblastoma, U87 (5×10^4), a human brain tumor cell line, was xenografted into the brains of mice to establish a brain tumor model, followed by oral administration of the drugs.
Different experimental groups were evaluated for each compound.
First, with respect to the compound of Example 1, the experimental groups were divided into Vehicle (n=3) and the compound of Example 1, 50 mg/kg (n=3) and the administered with the drug orally 5 times a week 20 days after U87 xenografting.
With respect to the compound of Example 2, the experimental groups were divided into Vehicle (n=9), TMZ 5 mg/kg (Temozolomide, n=10, 2 times per week), the compound of Example 2, 50 mg/kg (n=8, 5 times per week), and combination (TMZ+the compound of Example 2, n=7), and began receiving the drug 20 days after U87 xenografting.

[6] abbreviates: 50 μM, incubation 4 hr, pH 7.4, 25° C., U.V, read-out: Permeability Pe.

Where two headings read alike, the source gives them in different places.

Consider `O=C(Nc1nnc(-c2ccccc2)o1)c1cc(F)cc(C(F)(F)F)c1` [Example 3, 3-fluoro-N-(5-phenyl-1,3,4-oxadiazol-2-yl)-5-(trifluoromethyl)benzamide], for which the IC50 (commonly the concentration that gives 50% inhibition) in series [1] came out at 380 nM; in series [2], 240 nM.
Regarding `O=C(Nc1nnc(-c2cccc(Br)c2)o1)c1ccc(F)c(C(F)(F)F)c1` [Example 4, N-(5-(3-bromophenyl)-1,3,4-oxadiazol-2-yl)-4-fluoro-3-(trifluoromethyl)benzamide], the IC50 worked out at 250 nM in series [1] and 210 nM in series [2].
In the case of `O=C(Nc1nnc(-c2cccc(C(F)(F)F)c2)o1)c1ccc(F)c(C(F)(F)F)c1` [Example 5, 4-fluoro-3-(trifluoromethyl)-N-(5-(3-(trifluoromethyl)phenyl)-1,3,4-oxadiazol-2-yl)benzamide], the IC50 stood at 140 nM in series [1] and 180 nM in series [2].
`O=C(Nc1nnc(-c2cccc(Cl)c2)o1)c1ccc(F)c(C(F)(F)F)c1` [Example 6, N-(5-(3-chlorophenyl)-1,3,4-oxadiazol-2-yl)-4-fluoro-3-(trifluoromethyl)benzamide]: the IC50 in series [1] worked out at 270 nM; in series [2] it was 230 nM.
For `O=C(Nc1nnc(-c2ccccc2)o1)c1ccc(I)c(C(F)(F)F)c1` [Example 7, 4-iodo-N-(5-phenyl-1,3,4-oxadiazol-2-yl)-3-(trifluoromethyl)benzamide] the same measures were 120 nM and 190 nM.
Regarding `O=C(Nc1nnc(-c2cccc(-c3ccsc3)c2)o1)c1ccc(F)c(C(F)(F)F)c1` [Example 8], the IC50 amounted to 190 nM in series [1] and 160 nM in series [2].
For `O=C(Nc1nnc(-c2cccc(-c3ccsc3)c2)o1)c1cc(F)cc(C(F)(F)F)c1` [Example 9] the same measures were 130 nM and 150 nM.
On to `O=C(Nc1nnc(-c2cccc(-c3ccoc3)c2)o1)c1ccc(F)c(C(F)(F)F)c1` [Example 10], for which the IC50 in series [1] came out at 160 nM; in series [2] it was 100 nM. Also, in series [3] (setting [6]), the Papp at 4 h, 50 μM is greater than 0.4 ×10⁻⁶ cm/s. In series [4], the “Human (% ) remaining, microsomal stability” value (from here on “Human (% ) remaining”) was 94.9%.
For `O=C(Nc1nnc(-c2cccc(-c3ccoc3)c2)o1)c1cc(F)cc(C(F)(F)F)c1` [Example 11], the IC50 was determined as 260 nM in series [1] and 170 nM in series [2]. Further, in series [3] (setting [6]), the Papp at 4 h, 50 μM is greater than 0.4 ×10⁻⁶ cm/s.
Consider `O=C(Nc1nnc(-c2cccc(C(F)(F)F)c2)o1)c1cc(F)cc(C(F)(F)F)c1` [Example 12, 3-fluoro-5-(trifluoromethyl)-N-(5-(3-(trifluoromethyl)phenyl)-1,3,4-oxadiazol-2-yl)benzamide], for which the IC50 came out at 120 nM in series [1] and 140 nM in series [2]. In addition, the “Human (% ) remaining” value in series [4] is given as 90.0%.
As to `O=C(Nc1nnc(-c2cccc(Br)c2)o1)c1cc(F)cc(C(F)(F)F)c1` [Example 13, N-(5-(3-bromophenyl)-1,3,4-oxadiazol-2-yl)-3-fluoro-5-(trifluoromethyl)benzamide], the IC50 in series [1] came to 170 nM; in series [2] it was 150 nM. Moreover, in series [3] (setting [6]), the Papp at 4 h, 50 μM is greater than 0.4 ×10⁻⁶ cm/s. In series [4], the “Human (% ) remaining” value is recorded as 79.0%.
`CC(=O)[C@H]1CC[C@H]2[C@@H]3CCC4=CC(=O)CC[C@]4(C)[C@H]3CC[C@]12C` [Progesterone, reference compound] displayed a Papp at 4 h, 50 μM in series [3] (pH 7.4) greater than 0.4 ×10⁻⁶ cm/s.
In the case of `CNC(=C[N+](=O)[O-])NCCSCc1ccc(CN(C)C)o1` [Ranitidine, reference compound], the Papp at 4 h, 50 μM in series [3] (pH 7.4) is less than 0.4 ×10⁻⁶ cm/s.
Take `Cn1nnc2c(C(N)=O)ncn2c1=O` [TMZ, Temozolomide, reference compound]: the median survival time in series [5] was found to be 54.5 days.

The values above are taken from patent US20250051293A1, “NOVEL OXADIAZOLE DERIVATIVE AND USE THEREOF” (CELROS BIOTECH, priority 2021, published 2025).
